From patent US20140256754A1, “QUINAZOLINES AS B-GLUCURONIDASE NOVEL INHIBITORS” (priority 2013, published 2014) come the findings set out here.

Read-outs that look alike come from different tables or passages of the source.

One assay concerns the target T1, β-glucuronidase (UniProt A3KMY8).
T1 sequence (A3KMY8 1-652): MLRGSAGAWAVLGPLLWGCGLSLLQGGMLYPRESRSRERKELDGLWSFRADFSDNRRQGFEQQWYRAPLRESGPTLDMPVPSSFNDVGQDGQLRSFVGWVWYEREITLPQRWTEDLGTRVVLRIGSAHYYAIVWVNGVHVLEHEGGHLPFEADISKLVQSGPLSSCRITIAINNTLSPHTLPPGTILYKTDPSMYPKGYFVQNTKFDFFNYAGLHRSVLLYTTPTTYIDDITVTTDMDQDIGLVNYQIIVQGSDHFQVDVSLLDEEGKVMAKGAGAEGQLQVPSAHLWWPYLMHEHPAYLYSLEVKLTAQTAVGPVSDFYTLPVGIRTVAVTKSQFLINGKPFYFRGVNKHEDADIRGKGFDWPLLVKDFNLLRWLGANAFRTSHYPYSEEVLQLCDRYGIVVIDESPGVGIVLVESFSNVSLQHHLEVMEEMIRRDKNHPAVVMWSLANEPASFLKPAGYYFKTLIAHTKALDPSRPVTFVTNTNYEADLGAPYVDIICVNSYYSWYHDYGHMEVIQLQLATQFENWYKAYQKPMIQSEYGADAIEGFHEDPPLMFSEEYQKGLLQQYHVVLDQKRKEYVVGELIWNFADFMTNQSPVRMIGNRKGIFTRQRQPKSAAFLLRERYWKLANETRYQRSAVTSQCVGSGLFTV
In words: β-Glucuronidase inhibition, spectrophotometric p-nitrophenyl-β-D-glucuronide assay. It counts as biochemical. Conditions: for % Inhibition: test concentration not given. Here is the method:
The total reaction volume was 250 μL. […] The reaction mixture contained 185 μL of 0.1 M acetate buffer, 5 μL of test compound solution, 10 μL of (1U) enzyme solution was incubated at 37° C. for 30 min. […] All assays were run in triplicate. IC50 Values were calculated by using EZ-Fit software (Perrella Scientific Inc., Amherst, Mass., USA). These values are the mean of three independent assays.

For the next assay, the system named is PC-3 cells. Description: MTT cytotoxicity assay against PC-3 cells. Conditions: read-out: IC50 (μM) ± SEM, 72 h. In general terms: Formazan colour is commonly taken as a measure of viable cells.
Setting [1] is: read-out: IC50 (μM) ± SEM, mean of three independent assays.

Description for PC-3 cells: For this purpose, PC-3 cells (Prostrate Cancer)/3T3(Mouse fibroblast) were cultured in Dulbecco's Modified Eagle's Medium, supplemented with 5% of foetal bovine serum (FBS), 100 IU/mL of penicillin and 100 μg/mL of streptomycin in 25 cm^3 flask and kept in 5% CO2 incubator at 37° C. Exponentially growing cells were harvested, counted with haemocytometer and diluted with a particular medium.
Subsequently, 100 μL of DMSO was added to each well. The extent of MTT reduction to formazan within cells was calculated by measuring the absorbance at 570 nm, using a microplate ELISA reader (Spectra Max plus, Molecular Devices, Calif., USA).

Take `O=c1[nH]c(-c2ccccc2O)nc2ccccc12` [Compound 2, 2-(2-Hydroxyphenyl)quinazolin-4(3H)-one]: the IC50 – broadly, the concentration needed to halve the response being measured – was 10 ± 0.54 µM on β-glucuronidase (setting [1]) and above 30 µM with PC-3 cells. Also, on β-glucuronidase, the % Inhibition (as a rule, the percentage by which the read-out fell short of the control) is on record as 99.1%.

In the case of `O=c1[nH]c(-c2ccc(O)cc2)nc2ccccc12` [Compound 3, 2-(4-Hydroxyphenyl)quinazolin-4(3H)-one], the figures for the half-maximal inhibitory concentration (IC50) at β-glucuronidase (setting [1]) and in the assay with PC-3 cells were 22.2 ± 0.31 µM and above 30 µM, respectively. In addition, the “% Inhibition” value on β-glucuronidase was 99.6%.

With `O=c1[nH]c(-c2cccc(O)c2)nc2ccccc12` [Compound 4, 2-(3-Hydroxyphenyl)quinazolin-4(3H )-one], the “% Inhibition” value on β-glucuronidase came out at 78.5%. Besides, the IC50 in the assay on PC-3 cells is above 30 µM.

Regarding `O=c1[nH]c(-c2ccc(O)c(O)c2)nc2ccccc12` [Compound 5, 2-(3,4-Dihydroxyphenyl)quinazolin-4(3H)-one], in the assay with PC-3 cells, the half-maximal inhibitory concentration (IC50) was above 30 µM.

With `O=c1[nH]c(-c2cc(O)ccc2O)nc2ccccc12` [Compound 6, 2-(2,5-Dihydroxyphenyl)quinazolin-4(3H)-one], the IC50 in the assay with PC-3 cells was above 30 µM.

As to `COc1ccc(O)c(-c2nc3ccccc3c(=O)[nH]2)c1` [Compound 7, 2-[2-Hydroxy-5-(methyloxy)phenyl]quinazolin-4(3H)-one], in the assay with PC-3 cells, the IC50 was above 30 µM.

Take `COc1ccc(-c2nc3ccccc3c(=O)[nH]2)cc1O` [Compound 8, 2-[3-Hydroxy-4-(methyloxy)phenyl]quinazolin-4(3H)-one]: the IC50 at β-glucuronidase (setting [1]) is 2.8 ± 0.042 µM; with PC-3 cells, above 30 µM. Besides, on β-glucuronidase, the “% Inhibition” value was 84.0%.

Regarding `COc1ccc(-c2nc3ccccc3c(=O)[nH]2)cc1` [Compound 10, 2-[4-(Methyloxy)phenyl]quinazolin-4(3H)-one], the results for the half-inhibitory concentration (IC50) on β-glucuronidase (setting [1]) and in the assay on PC-3 cells were 1.1 ± 0.05 µM and above 30 µM, respectively. Moreover, the “% Inhibition” value at β-glucuronidase came out at 99.7%.

As for `COc1ccc(-c2nc3ccccc3c(=O)[nH]2)cc1OC` [Compound 11, 2-[3,4-Bis(methyloxy)phenyl]quinazolin-4(3H)-one], the IC50 in the assay with PC-3 cells was above 30 µM.

In the case of `COc1cc(-c2nc3ccccc3c(=O)[nH]2)cc(OC)c1OC` [Compound 12, 2-[3,4,5-Tris(methyloxy)phenyl]quinazolin-4(3H)-one], the “% Inhibition” value at β-glucuronidase is 97.6%. Moreover, the concentration for half-maximal inhibition (IC50) against β-glucuronidase (unit inferred) was 120 ± 2.54 µM; with PC-3 cells it was above 30 µM.

Regarding `CCOc1ccc(-c2nc3ccccc3c(=O)[nH]2)cc1` [Compound 13, 2-[4-(Ethyloxy)phenyl]quinazolin-4(3H)-one], the half-maximal inhibitory concentration (IC50) with PC-3 cells was above 30 µM.

In the case of `CCOc1ccccc1-c1nc2ccccc2c(=O)[nH]1` [Compound 14, 2-[2-(Ethyloxy)phenyl]quinazolin-4(3H)-one], the IC50 with PC-3 cells is above 30 µM.

Regarding `CCOc1cc(-c2nc3ccccc3c(=O)[nH]2)ccc1O` [Compound 15, 2-[3-(Ethyloxy)-4-hydroxyphenyl]quinazolin-4(3H)-one], in the assay with PC-3 cells, the IC50 is above 30 µM.

As to `O=c1[nH]c(-c2ccccc2Cl)nc2ccccc12` [Compound 16, 2-(2-Chlorophenyl)quinazolin-4(3H)-one], the concentration for half-maximal inhibition (IC50) with PC-3 cells was above 30 µM.

Turning to `O=c1[nH]c(-c2ccc(Cl)cc2Cl)nc2ccccc12` [Compound 17, 2-(2,4-Dichlorophenyl)quinazolin-4(3H)-one], the IC50 in the assay with PC-3 cells is above 30 µM.

Turning to `O=c1[nH]c(-c2c(Cl)cccc2Cl)nc2ccccc12` [Compound 18, 2-(2,6-Dichlorophenyl)quinazolin-4(3H)-one], the IC50 in the assay on PC-3 cells was above 30 µM.

`O=c1[nH]c(-c2ccc(Cl)cc2)nc2ccccc12` [Compound 19, 2-(4-Chlorophenyl)quinazolin-4(3H)-one]: the IC50 in the assay with PC-3 cells was above 30 µM.

In the case of `O=c1[nH]c(-c2ccccc2[N+](=O)[O-])nc2ccccc12` [Compound 20, 2-(2-Nitrophenyl)quinazolin-4(3H)-one], in the assay on PC-3 cells, the half-maximal inhibitory concentration (IC50) was above 30 µM.

Consider `O=c1[nH]c(-c2cccc([N+](=O)[O-])c2)nc2ccccc12` [Compound 21, 2-(3-Nitrophenyl)quinazolin-4(3H)-one], for which the IC50 on β-glucuronidase (setting [1]) is 50.4 ± 1.4 µM; with PC-3 cells, above 30 µM. The “% Inhibition” value at β-glucuronidase is 95.1%.

With `O=c1[nH]c(-c2ccc([N+](=O)[O-])cc2)nc2ccccc12` [Compound 22, 2-(4-Nitrophenyl)quinazolin-4(3H)-one], the half-inhibitory concentration (IC50) at β-glucuronidase (setting [1]) is 20.1 ± 0.92 µM; with PC-3 cells, above 30 µM. Also, the “% Inhibition” value on β-glucuronidase was 96.4%.

Take `CN(C)c1ccc(-c2nc3ccccc3c(=O)[nH]2)cc1` [Compound 23, 2-[4-(Dimethylamino)phenyl]quinazolin-4(3H)-one]: the concentration for half-maximal inhibition (IC50) at β-glucuronidase (setting [1]) was 5.5 ± 0.1 µM; in the assay with PC-3 cells, above 30 µM. The “% Inhibition” value at β-glucuronidase is 99.6%.

For the compound `Cc1ccc(-c2nc3ccccc3c(=O)[nH]2)cc1` [Compound 24, 2-(4-Methylphenyl)quinazolin-4(3H)-one], at β-glucuronidase, the “% Inhibition” value is 96.3%. The IC50 in the assay with PC-3 cells is above 30 µM.

As to `O=c1[nH]c(-c2c(O)cccc2Br)nc2ccccc12` [Compound 25, 2-(2-Bromo-6-hydroxyphenyl)quinazolin-4(3H)-one], the IC50 in the assay with PC-3 cells is above 30 µM.
